Legend:
[1] = molecular target: T1, Platelet-activating factor receptor (Homo sapiens, UniProt P25105); assay: Binding affinity against platelet activating factor
[2] = molecular target: T1, Platelet-activating factor receptor; assay: Compound was evaluated for anti-platelet activating factor potency

T1 sequence (P25105 whole entry): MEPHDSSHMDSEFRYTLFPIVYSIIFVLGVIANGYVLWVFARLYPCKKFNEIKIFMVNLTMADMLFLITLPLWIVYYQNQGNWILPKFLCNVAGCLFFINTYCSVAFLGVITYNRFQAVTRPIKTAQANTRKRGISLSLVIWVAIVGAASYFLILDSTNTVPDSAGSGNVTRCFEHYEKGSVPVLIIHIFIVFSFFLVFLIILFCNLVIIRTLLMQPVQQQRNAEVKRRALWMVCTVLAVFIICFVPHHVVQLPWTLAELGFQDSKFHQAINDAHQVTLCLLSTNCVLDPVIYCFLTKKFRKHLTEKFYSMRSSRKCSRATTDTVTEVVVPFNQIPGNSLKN

SMILES	Binding affinity [1] [µM]	IC50 [2] [nM]
CC(C)(C)[C@@H]1C[C@H]2OC(=O)[C@]34C[C@@H](Cl)[C@H](Cl)C23[C@@]12[C@@H](OC(=O)[C@@H]2O)O4 (stereo partly drawn)	1.3	–
C[C@@H]1C(=O)O[C@H]2CC34[C@H]5C[C@@H](C(C)(C)C)C36C(=O)C(=O)O[C@H]6O[C@@]4(C(=O)O5)[C@]21O (stereo partly drawn)	3.9	–
CC(C)(C)[C@@]12C[C@H]3OC(=O)[C@@]4(CCCC34C13COC(=O)[C@H]3O)O2 (stereo partly drawn)	13	–
C[C@@H]1C(=O)O[C@H]2[C@H](OCOCc3ccccc3)C34[C@H]5C[C@@H](C(C)(C)C)[C@]36[C@@H](OC(=O)[C@@H]6O)O[C@@]4(C(=O)O5)[C@@]12O (stereo partly drawn)	–	58.8
CC1(C)C[C@@]2(O)C(=O)O[C@H]3O[C@@]45CCCC46[C@@H](C[C@@H]1C362)OC5=O (stereo partly drawn)	9.2	–
COCO[C@@H]1C(=O)OCC12C13[C@H]4C[C@@]2(C(C)(C)C)O[C@]1(C[C@@H](Cl)[C@@H]3Cl)C(=O)O4 (stereo partly drawn)	0.3	–
C[C@@H]1C(=O)O[C@H]2[C@H](OCc3ccc(Cl)cc3)C34[C@H]5C[C@@H](C(C)(C)C)[C@]36[C@@H](OC(=O)[C@@H]6O)O[C@@]4(C(=O)O5)[C@@]12O (stereo partly drawn)	–	28.9
C[C@@H]1C(=O)O[C@H]2[C@H](O)[C@@]34[C@H]5C[C@@H](C(C)(C)C)[C@]36[C@@H](OC(=O)[C@@H]6O)O[C@@]4(C(=O)O5)[C@@]12O [GINKOLIDE B]	0.6	128
CC(=O)O[C@@H]1C(=O)O[C@H]2O[C@@]34CCCC35[C@@H](C[C@@H](C(C)(C)C)C215)OC4=O (stereo partly drawn)	11	–
COCO[C@@H]1C(=O)O[C@H]2O[C@@]34CCCC35[C@@H](C[C@@H](C(C)(C)C)[C@@]215)OC4=O (stereo partly drawn)	21	–
COCO[C@H]1C(=O)OC[C@@]12C13CCC[C@]14O[C@@]2(C(C)(C)C)C[C@H]3OC4=O	9.4	–
CC(=O)O[C@H]1C(=O)OC[C@@]12C13CCC[C@]14O[C@@]2(C(C)(C)C)C[C@H]3OC4=O	13	–
CC(C)(C)[C@@]12C[C@H]3OC(=O)[C@@]4(CCCC34C13COC(=O)C3=O)O2 (stereo partly drawn)	18	–
CO[C@H]1C[C@@]23[C@@H](O1)O[C@@]14CC=CC21[C@@H](C[C@H]3C(C)(C)C)OC4=O (stereo partly drawn)	120	–
CC(C)(C)[C@@H]1C[C@H]2OC(=O)[C@]34CC=CC23[C@]12CC(=O)O[C@H]2O4 (stereo partly drawn)	80	–
CC(C)(C)[C@@]12C[C@H]3OC(=O)[C@@]4(C[C@@H](Cl)CC34C13COC(=O)[C@H]3O)O2 (stereo partly drawn)	1.1	–
C[C@@H]1C(=O)O[C@H]2CC34[C@H]5C[C@@H](C(C)(C)C)C36[C@@H](OC(=O)[C@@H]6O)O[C@@]4(C(=O)O5)[C@]21O (stereo partly drawn)	17.8	–
C[C@@H]1C(=O)O[C@H]2[C@H](O)C34[C@@H]5OC(=O)[C@]3(O[C@@H]3OC(=O)[C@H](O)C34[C@H](C(C)(C)C)[C@H]5O)[C@@]12O (stereo partly drawn)	17	–
C[C@@H]1C(=O)O[C@H]2[C@H](O)C34[C@H]5C[C@H]6C(C)(C)C[C@@]7(O)C(=O)O[C@@H](O[C@@]3(C(=O)O5)[C@@]12O)C647 (stereo partly drawn)	0.7	–
CC1C(=O)O[C@H]2[C@H](O)C34[C@H]5C[C@@H](C(C)(C)C)[C@]36[C@@H](OC(=O)[C@@H]6OCOCc3ccccc3)O[C@@]4(C(=O)O5)[C@@]12O (stereo partly drawn)	–	40.4
COCO[C@@H]1C(=O)O[C@H]2O[C@@]34C[C@@H](Br)[C@H](OCOC)C35[C@@H](C[C@@H](C(C)(C)C)C215)OC4=O (stereo partly drawn)	0.6	–
CC(C)(C)[C@]12C[C@H]3OC(=O)[C@@]4(CCCC34[C@@]13COC(=O)[C@@H]3O)O2	76	–
CC(C)(C)[C@]12C[C@H]3OC(=O)[C@@]4(C[C@@H](Cl)[C@H](Cl)C34[C@@]13COC(=O)[C@@H]3O)O2	38	–
C[C@@H]1C(=O)O[C@H]2CC34[C@@H]5OC(=O)[C@]3(O[C@@H]3OC(=O)[C@H](O)C34[C@H](C(C)(C)C)[C@H]5O)[C@]21O (stereo partly drawn)	130	–
COCO[C@@H]1C(=O)OCC12C13[C@H]4C[C@@]2(C(C)(C)C)O[C@]1(C[C@@H](Cl)[C@@H]3OCOC)C(=O)O4 (stereo partly drawn)	0.3	–
CC(C)(C)[C@@]12C[C@H]3OC(=O)[C@@]4(C[C@@H](Cl)[C@H](Cl)C34C13COC(=O)[C@H]3O)O2 (stereo partly drawn)	1.1	–
CC(C)(C)[C@@H]1C[C@H]2OC(=O)[C@@]34CC5OC6C[C@@]1([C@@H](O6)O3)[C@@]24C5Br (stereo partly drawn)	2.9	–

From ChEMBL document CHEMBL1130997, “A 3D-QSAR study on ginkgolides and their analogues with comparative molecular field analysis” (Bioorg Med Chem Lett, 1998)
